Experimental findings from ChEMBL document CHEMBL4680202, “Development, synthesis and biological investigation of a novel class of potent PC-PLC inhibitors” (Eur J Med Chem, 2020) are described below.

Each structure is given as a SMILES string.

For assay [1], the system named is Bacillus cereus. As to the kind of experiment: Inhibition of Bacillus cereus PC-PLC assessed as residual activity at 10 uM using phosphatidylcholine as substrate measured after 1 hr by horseradish peroxidase/alkaline phosphatase/choline oxidase-coupled amplex red reagent based fluorescence assay relative to control.
A short description of assay [2]: Inhibition of Bacillus cereus PC-PLC using phosphatidylcholine as substrate measured after 1 hr by horseradish peroxidase/alkaline phosphatase/choline oxidase-coupled amplex red reagent based fluorescence assay.
Assay [3] relates to MDA-MB-231. The assay is described as follows: Cytotoxicity against human MDA-MB-231 cells assessed as reduction in cell proliferation measured at 50 ug/ml measured after 48 to 72 hrs by trypan blue exclusion assay relative to control. It counts as functional. Details: scale not given: the % may be the effect or the level left. The conditions noted are these: dose 50 µg/ml; time 48-72 hrs.

For the molecule `O=C(O)c1cc(NCc2cccc(Cl)c2)ccc1N1CCOCC1`, the Activity in assay [1] was found to be 10.7%. The molecule also had an IC50 in assay [2] of 3.6 µM.

In the case of `Oc1ccccc1CNc1ccc(N2CCCCC2)cc1`, the Activity in assay [1] stood at 14.8%.

As for `Cc1ccccc1CNc1ccc(N2CCCCC2)cc1`, the Activity in assay [1] came to 14.7%.

Regarding `S=C([S-])OC1CC2CC1C1CCCC21.[K+]` (configuration not stated), the Activity in assay [1] turned out to be 40.3%. In assay [2], the IC50 was 8.08 µM and the inhibition constant (Ki) stood at 6.4 µM. For the same molecule, the Activity in assay [3] was found to be 60%.

Turning to `FC(F)(F)c1ccccc1CNc1ccc(N2CCCCC2)cc1`, the Activity in assay [1] was 49.3%.

Take `COc1ccccc1CNc1ccc(N2CCN(C(=O)OC(C)(C)C)CC2)cc1`: the Activity in assay [1] was 19.9%.

On to `COC(=O)c1cc(NCc2ccc(Cl)cc2)ccc1N1CCOCC1`, for which, in assay [1], the Activity was determined as 87.5%.

Turning to `Cc1ccccc1CNc1ccc(N2CCN(C(=O)OC(C)(C)C)CC2)cc1`, in assay [1], the Activity came to 32.2%.

Take `Fc1ccc(CNc2ccc(N3CCOCC3)cc2)cc1`: the Activity in assay [1] worked out at 1.8%.

`Brc1ccccc1CNc1ccc(N2CCOCC2)cc1`: the Activity in assay [1] came to 14.1%.

`CN1CCN(c2ccc(NCc3cccc(F)c3)cc2)CC1`: the Activity in assay [1] amounted to 44.2%.

For the molecule `COC(=O)c1cc(NCc2c(C)cc(C)cc2C)ccc1N1CCOCC1`, the Activity in assay [1] came out at 96.8%.

Turning to `Fc1ccccc1CNc1ccc(N2CCOCC2)cc1`, the Activity in assay [1] came to 0%. In assay [2], this molecule returned a half-maximal inhibitory concentration (IC50) of 1.06 µM.

For `O=C(O)c1cc(NCc2ccc(O)cc2)ccc1N1CCOCC1`, in assay [1], the Activity came to 43.8%.

Take `O=C(O)c1cc(NCc2ccccc2C(F)(F)F)ccc1N1CCOCC1`: the Activity in assay [1] came out at 34.1%.

For `CN1CCN(c2ccc(NCc3cccc(O)c3)cc2)CC1`, the Activity in assay [1] was found to be 12.7%.

`Fc1ccc(CNc2ccc(N3CCCCC3)cc2)cc1`: the Activity in assay [1] was determined as 6.6%.

Regarding `COc1ccc(CNc2ccc(N3CCOCC3)c(C(=O)O)c2)cc1`, the Activity in assay [1] is 32.3%.

As to `Cc1ccccc1CNc1ccc(N2CCOCC2)cc1`, the Activity in assay [1] turned out to be 2.2%.

Turning to `Clc1ccccc1CNc1ccc(N2CCOCC2)cc1`, the Activity in assay [1] was found to be 7.9%.

On to `COC(=O)c1cc(NCc2ccccc2)ccc1N1CCOCC1`, for which, in assay [1], the Activity is 57.7%.

For the molecule `Clc1ccc(CNc2ccc(N3CCOCC3)cc2)cc1`, the Activity in assay [1] worked out at 12.9%.

Take `CC(C)(C)OC(=O)N1CCN(c2ccc(NCc3ccccc3C(F)(F)F)cc2)CC1`: the Activity in assay [1] turned out to be 41.3%.

As to `O=C(O)c1cc(NCc2ccccc2Cl)ccc1N1CCOCC1`, the Activity in assay [1] was 11.5%.

Turning to `COC(=O)c1cc(NCc2ccc(O)cc2)ccc1N1CCOCC1`, in assay [1], the Activity worked out at 48.3%.

As for `COC(=O)c1cc(NCc2ccc(C)cc2)ccc1N1CCOCC1`, the Activity in assay [1] came out at 54.3%.

Regarding `CC(C)(C)OC(=O)N1CCN(c2ccc(NCc3ccccc3Br)cc2)CC1`, the Activity in assay [1] worked out at 35.6%.

`Cc1ccc(CNc2ccc(N3CCOCC3)cc2)cc1`: in assay [1], the Activity was determined as 5.4%.

As for `COC(=O)c1cc(NCc2ccc(-c3ccccc3)cc2)ccc1N1CCOCC1`, the Activity in assay [1] was found to be 100%.

Take `CC(C)(C)OC(=O)N1CCN(c2ccc(NCc3ccccc3F)cc2)CC1`: in assay [1], the Activity amounted to 29.4%.

As to `O=C(O)c1cc(NCc2ccc(C(F)(F)F)cc2)ccc1N1CCOCC1`, the Activity in assay [1] stood at 45.5%.

With `COC(=O)c1cc(NCc2ccccc2Cl)ccc1N1CCOCC1`, in assay [1], the Activity stood at 73.1%.

Turning to `Fc1cccc(CNc2ccc(N3CCNCC3)cc2)c1`, in assay [1], the Activity is 26%.

As for `Fc1ccc(CNc2ccc(N3CCNCC3)cc2)cc1`, in assay [1], the Activity stood at 21.1%.

Turning to `O=C(O)c1cc(NCc2ccccc2O)ccc1N1CCOCC1`, in assay [1], the Activity was 40%.

As for `COC(=O)c1cc(NCc2ccccc2O)ccc1N1CCOCC1`, the Activity in assay [1] came out at 38.6%.

For the molecule `COC(=O)c1cc(NCc2ccccc2Br)ccc1N1CCOCC1`, in assay [1], the Activity is 56.7%.

Take `Clc1cccc(CNc2ccc(N3CCCCC3)cc2)c1`: the Activity in assay [1] was 24.7%.

As for `Clc1cccc(CNc2ccc(N3CCOCC3)cc2)c1`, the Activity in assay [1] was determined as 9.1%.

As for `COC(=O)c1cc(NCc2ccccc2F)ccc1N1CCOCC1`, the Activity in assay [1] came out at 56.8%.

As for `c1ccc(CNc2ccc(N3CCOCC3)cc2)cc1`, in assay [1], the Activity worked out at 0%.

`CC(C)(C)OC(=O)N1CCN(c2ccc(NCc3ccccc3O)cc2)CC1`: in assay [1], the Activity was 26.5%.

As to `Fc1cccc(CNc2ccc(N3CCOCC3)cc2)c1`, in assay [1], the Activity is 6.1%.

Take `COc1ccccc1CNc1ccc(N2CCOCC2)cc1`: the Activity in assay [1] was determined as 1.2%.

As to `COC(=O)c1cc(NCc2cccc(OC)c2)ccc1N1CCOCC1`, in assay [1], the Activity was determined as 64.6%.

In the case of `Fc1cccc(CNc2ccc(N3CCCCC3)cc2)c1`, in assay [1], the Activity amounted to 10.7%.

With `Fc1ccccc1CNc1ccc(N2CCCCC2)cc1`, the Activity in assay [1] is 9%.

Regarding `Oc1cccc(CNc2ccc(N3CCNCC3)cc2)c1`, the Activity in assay [1] is 30.9%.

Take `Oc1cccc(CNc2ccc(N3CCCCC3)cc2)c1`: the Activity in assay [1] came to 7.6%.

Consider `Cc1ccccc1CNc1ccc(N2CCNCC2)cc1`, for which, in assay [1], the Activity worked out at 29.3%.

With `CN1CCN(c2ccc(NCc3ccc(Cl)cc3)cc2)CC1`, the Activity in assay [1] is 16.6%.

As to `Clc1ccccc1CNc1ccc(N2CCCCC2)cc1`, the Activity in assay [1] came out at 22.6%.

Usually IC50 stands for the concentration that gives 50% inhibition. The term Ki denotes a dissociation constant, usually derived from enzyme kinetics or from competition with a known ligand.
